# In PubChem BioAssay AID540316 (Broad Institute, 2011):
# Results filed as inconclusive are left out. Calls of active or inactive are those of the source.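 Rule for the calls: active = compounds lowering viability whose fitted half-maximal concentration is at most tenfold the top tested dose; inconclusive = flat curve with viability loss of 30 to 70%, or bad fit; inactive = the rest.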
# System: not listed separately
# Assay: cytotoxicity toward BJeH engineered cells – cell-based, plate reader, dry powder, set 4, counter-screen for Ras selective lethality project, dose response (AID 540316)
# Conditions: BJeH fibroblasts viability, Alamar Blue fluorescence, 48 h; at 48 µM (top of the series)
row,SMILES,"activity change, negative = fewer viable cells"
1,Cc1onc(CC(=O)N2CCN(C(c3ccc(F)cc3)c3ccc(F)cc3)CC2)c1[N+](=O)[O-],-13.5% (inactive)
2,Cc1onc(C(=O)N2CCN(Cc3ccccc3)CC2)c1[N+](=O)[O-],-0.245% (inactive)
3,Cc1onc(C(=O)NCCNC(c2ccccc2)c2ccccc2)c1[N+](=O)[O-],-11.9% (inactive)
4,Cc1onc(C(=O)N2CCCN(C(c3ccccc3)c3ccccc3)CC2)c1[N+](=O)[O-],-10.7% (inactive)
5,Cc1onc(C(=O)N2CCN(C(c3ccccc3)c3ccccc3)CC2)c1[N+](=O)[O-],-11.7% (inactive)

# System: BJeH fibroblasts viability, Alamar Blue fluorescence, 48 h
# Assay: as above
# Conditions: not given
row,SMILES,AC50 [µM]
1,COc1ccc(C(c2ccc(OC)cc2)N2CCN(C(=O)c3ccc([N+](=O)[O-])o3)CC2)cc1,6.76
2,O=C(c1ccc([N+](=O)[O-])o1)N1CCN(C(c2ccc(F)cc2)c2ccc(F)cc2)CC1,14.2
3,O=C(NCCNC(c1ccccc1)c1ccccc1)c1ccc([N+](=O)[O-])o1,5.31
4,COC(=O)c1ccc([C@@H]2c3[nH]c4ccccc4c3C[C@@H](C(=O)OC)N2C(=O)CCl)cc1,2.68
5,CCOc1ccccc1-n1c(C(C)N2CCN(C(=O)COc3ccc(Cl)cc3)CC2)nc2ccccc2c1=O (stereo not given),7.93
